Assay results as given in paper PMC11397024, “Strategic Fluorination to Achieve a Potent, Selective, Metabolically Stable, and Orally Bioavailable Inhibitor of CSNK2” (Molecules, 2024).

Experiments:
Experiment in all cases: NanoBRET K192
Format in all cases: cell-based
Settings in all cases: HEK293
CDKL1 = target: T1, CDKL1 (Homo sapiens, UniProt Q00532)
T1 construct: purchased Promega (NanoBRET Target Engagement K192 Kinase Selectivity System)
In short: (§1)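 HEK293 cells were transfected overnight with NanoLuc–kinase fusion vectors, then treated for 2 h at 37 °C with compound (added as 100 μM working solution) plus K10 tracer. BRET was read at 450/610 nm after substrate and extracellular inhibitor, and fractional occupancy was calculated against no-compound controls.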

PRKAA2 = target: T2, PRKAA2 (Homo sapiens, UniProt P54646)
T2 construct: purchased Promega (NanoBRET Target Engagement K192 Kinase Selectivity System)
T2 sequence (P54646 whole entry): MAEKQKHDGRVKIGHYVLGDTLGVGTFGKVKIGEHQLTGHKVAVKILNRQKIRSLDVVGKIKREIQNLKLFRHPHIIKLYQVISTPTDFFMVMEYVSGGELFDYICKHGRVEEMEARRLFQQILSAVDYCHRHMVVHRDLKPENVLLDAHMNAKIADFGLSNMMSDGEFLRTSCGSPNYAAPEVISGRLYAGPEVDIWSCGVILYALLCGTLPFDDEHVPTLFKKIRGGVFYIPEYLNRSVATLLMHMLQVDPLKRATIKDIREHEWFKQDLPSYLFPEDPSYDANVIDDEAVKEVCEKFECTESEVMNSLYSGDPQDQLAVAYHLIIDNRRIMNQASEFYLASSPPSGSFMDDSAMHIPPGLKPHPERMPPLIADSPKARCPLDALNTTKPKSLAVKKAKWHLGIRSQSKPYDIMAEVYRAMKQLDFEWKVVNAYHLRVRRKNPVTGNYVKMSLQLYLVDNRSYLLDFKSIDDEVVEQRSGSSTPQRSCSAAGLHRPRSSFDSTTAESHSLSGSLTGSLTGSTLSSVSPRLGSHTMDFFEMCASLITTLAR
In short: as §1

RIPK1 = target: T3, RIPK1 (Homo sapiens, UniProt Q13546)
T3 construct: purchased Promega (NanoBRET Target Engagement K192 Kinase Selectivity System)
In short: as §1

FGFR1 = target: T4, FGFR1 (Homo sapiens, UniProt P11362)
T4 construct: purchased Promega (NanoBRET Target Engagement K192 Kinase Selectivity System)
T4 sequence (P11362 22-822): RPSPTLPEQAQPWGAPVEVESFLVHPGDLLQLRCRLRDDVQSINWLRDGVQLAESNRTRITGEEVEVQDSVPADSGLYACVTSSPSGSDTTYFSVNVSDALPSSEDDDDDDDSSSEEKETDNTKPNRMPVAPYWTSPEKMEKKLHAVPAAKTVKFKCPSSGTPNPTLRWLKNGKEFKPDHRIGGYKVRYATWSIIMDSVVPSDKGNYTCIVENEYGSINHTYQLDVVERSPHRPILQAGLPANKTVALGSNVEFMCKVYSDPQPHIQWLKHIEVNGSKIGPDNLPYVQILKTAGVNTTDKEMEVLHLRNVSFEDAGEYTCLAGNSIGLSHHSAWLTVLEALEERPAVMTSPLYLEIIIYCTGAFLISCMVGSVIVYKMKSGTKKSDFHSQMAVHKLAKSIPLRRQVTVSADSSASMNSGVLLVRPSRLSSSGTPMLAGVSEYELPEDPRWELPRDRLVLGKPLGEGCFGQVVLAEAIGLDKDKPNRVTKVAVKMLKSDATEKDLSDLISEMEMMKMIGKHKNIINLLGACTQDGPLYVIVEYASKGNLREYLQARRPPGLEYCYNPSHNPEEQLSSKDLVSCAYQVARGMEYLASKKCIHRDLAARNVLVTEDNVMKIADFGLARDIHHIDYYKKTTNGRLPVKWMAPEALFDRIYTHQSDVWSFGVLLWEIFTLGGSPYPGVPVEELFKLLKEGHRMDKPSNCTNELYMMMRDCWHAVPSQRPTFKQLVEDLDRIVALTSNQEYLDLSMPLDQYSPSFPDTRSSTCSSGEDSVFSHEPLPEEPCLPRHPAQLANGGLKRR
In short: as §1

PAK4 = target: T5, PAK4 (Homo sapiens, UniProt O96013)
T5 construct: purchased Promega (NanoBRET Target Engagement K192 Kinase Selectivity System)
In short: as §1

PTK2 = target: T6, PTK2 (Homo sapiens, UniProt Q05397)
T6 construct: purchased Promega (NanoBRET Target Engagement K192 Kinase Selectivity System)
T6 sequence (Q05397 whole entry): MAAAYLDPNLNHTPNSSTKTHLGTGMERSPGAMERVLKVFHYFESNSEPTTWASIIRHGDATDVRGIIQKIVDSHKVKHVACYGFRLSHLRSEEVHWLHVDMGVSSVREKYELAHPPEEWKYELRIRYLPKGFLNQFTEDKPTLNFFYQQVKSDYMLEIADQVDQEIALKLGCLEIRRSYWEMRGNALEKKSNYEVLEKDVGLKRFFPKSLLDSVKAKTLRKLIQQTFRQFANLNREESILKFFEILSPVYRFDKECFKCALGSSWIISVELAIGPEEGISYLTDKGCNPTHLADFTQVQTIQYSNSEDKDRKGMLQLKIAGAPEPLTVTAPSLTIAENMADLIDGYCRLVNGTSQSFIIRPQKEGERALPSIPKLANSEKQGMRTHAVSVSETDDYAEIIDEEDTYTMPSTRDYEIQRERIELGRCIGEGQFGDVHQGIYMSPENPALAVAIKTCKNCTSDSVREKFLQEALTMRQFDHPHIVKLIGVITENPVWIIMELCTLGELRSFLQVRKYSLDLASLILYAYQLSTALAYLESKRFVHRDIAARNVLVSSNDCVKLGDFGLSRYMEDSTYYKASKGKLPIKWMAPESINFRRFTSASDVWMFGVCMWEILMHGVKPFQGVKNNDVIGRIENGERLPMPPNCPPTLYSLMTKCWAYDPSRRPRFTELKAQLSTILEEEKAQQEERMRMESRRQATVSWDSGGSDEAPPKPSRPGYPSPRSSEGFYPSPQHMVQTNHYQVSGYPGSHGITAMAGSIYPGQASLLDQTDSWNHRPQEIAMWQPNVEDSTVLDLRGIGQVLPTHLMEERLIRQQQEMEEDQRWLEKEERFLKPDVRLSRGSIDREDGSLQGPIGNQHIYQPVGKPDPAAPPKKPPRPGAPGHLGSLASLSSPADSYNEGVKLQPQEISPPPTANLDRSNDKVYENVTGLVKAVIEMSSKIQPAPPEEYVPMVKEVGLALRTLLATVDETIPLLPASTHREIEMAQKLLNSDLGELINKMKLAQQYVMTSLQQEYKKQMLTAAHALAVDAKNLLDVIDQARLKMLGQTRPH
In short: as §1

ULK3v1 = target: T7, ULK3v1 (Homo sapiens, UniProt Q6PHR2)
T7 construct: host or cells: HEK293
In short: as §1

NIM1K = target: T8, NIM1K (Homo sapiens, UniProt Q8IY84)
T8 construct: host or cells: HEK293
T8 sequence (Q8IY84 whole entry): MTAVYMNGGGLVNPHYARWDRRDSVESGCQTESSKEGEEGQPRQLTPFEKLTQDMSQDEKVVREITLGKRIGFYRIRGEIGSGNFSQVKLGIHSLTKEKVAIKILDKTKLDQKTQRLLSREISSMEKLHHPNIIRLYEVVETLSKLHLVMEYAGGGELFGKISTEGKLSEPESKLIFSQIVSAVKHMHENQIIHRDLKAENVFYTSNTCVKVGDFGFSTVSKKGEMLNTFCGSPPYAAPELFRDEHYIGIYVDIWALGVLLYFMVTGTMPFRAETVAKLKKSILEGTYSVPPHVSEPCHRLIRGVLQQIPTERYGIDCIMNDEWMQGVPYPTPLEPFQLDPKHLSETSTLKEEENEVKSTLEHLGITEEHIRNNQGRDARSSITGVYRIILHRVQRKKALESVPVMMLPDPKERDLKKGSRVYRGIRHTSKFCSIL
In short: as §1

MAPK11 = target: T9, MAPK11 (Homo sapiens, UniProt Q15759)
T9 construct: purchased Promega (NanoBRET Target Engagement K192 Kinase Selectivity System)
In short: as §1

RPS6KA6 = target: T10, RPS6KA6 (Homo sapiens, UniProt Q9UK32)
T10 construct: purchased Promega (NanoBRET Target Engagement K192 Kinase Selectivity System)
In short: as §1

MAPK4 = target: T11, MAPK4 (Homo sapiens, UniProt P31152)
T11 construct: purchased Promega (NanoBRET Target Engagement K192 Kinase Selectivity System)
In short: as §1

MARK4 = target: T12, MARK4 (Homo sapiens, UniProt Q96L34)
T12 construct: purchased Promega (NanoBRET Target Engagement K192 Kinase Selectivity System)
In short: as §1

FGFR2 = target: T13, FGFR2 (Homo sapiens, UniProt P21802)
T13 construct: host or cells: HEK293
In short: as §1

PRKCE = target: T14, PRKCE (Homo sapiens, UniProt Q02156)
T14 construct: purchased Promega (NanoBRET Target Engagement K192 Kinase Selectivity System)
In short: as §1

BMP2K = target: T15, BMP2K (Homo sapiens, UniProt Q9NSY1)
T15 construct: purchased Promega (NanoBRET Target Engagement K192 Kinase Selectivity System)
In short: as §1

PLK4 = target: T16, PLK4 (Homo sapiens, UniProt O00444)
T16 construct: purchased Promega (NanoBRET Target Engagement K192 Kinase Selectivity System)
In short: as §1

STK32B = target: T17, STK32B (Homo sapiens, UniProt Q9NY57)
T17 construct: purchased Promega (NanoBRET Target Engagement K192 Kinase Selectivity System)
In short: as §1

CDK10 + L2 = target: T18, CDK10 + L2 (Homo sapiens, UniProt Q15131)
T18 construct: purchased Promega (NanoBRET Target Engagement K192 Kinase Selectivity System)
In short: as §1

PLK3 = target: T19, PLK3 (Homo sapiens, UniProt Q9H4B4)
T19 construct: purchased Promega (NanoBRET Target Engagement K192 Kinase Selectivity System)
T19 sequence (Q9H4B4 whole entry): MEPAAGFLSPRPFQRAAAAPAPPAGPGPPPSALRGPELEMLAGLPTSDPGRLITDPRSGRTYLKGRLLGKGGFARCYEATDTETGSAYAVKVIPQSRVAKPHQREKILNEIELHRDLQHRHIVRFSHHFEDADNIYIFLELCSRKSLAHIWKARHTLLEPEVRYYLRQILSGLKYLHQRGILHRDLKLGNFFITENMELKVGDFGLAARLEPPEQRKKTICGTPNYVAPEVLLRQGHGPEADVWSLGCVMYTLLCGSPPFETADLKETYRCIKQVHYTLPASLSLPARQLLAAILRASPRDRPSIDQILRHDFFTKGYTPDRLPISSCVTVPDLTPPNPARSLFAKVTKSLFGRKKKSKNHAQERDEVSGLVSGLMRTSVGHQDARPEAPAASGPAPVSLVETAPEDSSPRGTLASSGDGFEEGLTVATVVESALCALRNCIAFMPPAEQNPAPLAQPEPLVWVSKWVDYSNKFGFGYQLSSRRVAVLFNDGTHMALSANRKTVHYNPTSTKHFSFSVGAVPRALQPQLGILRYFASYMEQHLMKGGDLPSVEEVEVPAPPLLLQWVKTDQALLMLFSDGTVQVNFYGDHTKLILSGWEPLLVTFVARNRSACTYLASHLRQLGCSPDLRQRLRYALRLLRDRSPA
In short: as §1

LIMK1 = target: T20, LIMK1 (Homo sapiens, UniProt P53667)
T20 construct: purchased Promega (NanoBRET Target Engagement K192 Kinase Selectivity System)
In short: as §1

STK16 = target: T21, STK16 (Homo sapiens, UniProt O75716)
T21 construct: purchased Promega (NanoBRET Target Engagement K192 Kinase Selectivity System)
In short: as §1

BRAF(V600E) = target: T22, BRAF(V600E) (Homo sapiens, UniProt P15056, V600E)
T22 construct: purchased Promega (NanoBRET Target Engagement K192 Kinase Selectivity System)
In short: as §1

PTK2B = target: T23, PTK2B (Homo sapiens, UniProt Q14289)
T23 construct: purchased Promega (NanoBRET Target Engagement K192 Kinase Selectivity System)
In short: as §1

AURKB = target: T24, AURKB (Homo sapiens, UniProt Q96GD4)
T24 construct: purchased Promega (NanoBRET Target Engagement K192 Kinase Selectivity System)
T24 sequence (Q96GD4 whole entry): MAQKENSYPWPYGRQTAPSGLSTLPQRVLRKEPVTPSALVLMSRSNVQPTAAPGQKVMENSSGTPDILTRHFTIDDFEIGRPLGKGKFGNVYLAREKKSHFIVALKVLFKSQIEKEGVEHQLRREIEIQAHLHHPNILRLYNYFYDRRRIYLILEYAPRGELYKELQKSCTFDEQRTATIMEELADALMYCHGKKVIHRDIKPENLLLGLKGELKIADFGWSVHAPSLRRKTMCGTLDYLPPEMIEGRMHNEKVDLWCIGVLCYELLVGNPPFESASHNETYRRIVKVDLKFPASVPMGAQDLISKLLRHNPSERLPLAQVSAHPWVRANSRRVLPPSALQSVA
In short: as §1

TYRO3 = target: T25, TYRO3 (Homo sapiens, UniProt Q06418)
T25 construct: purchased Promega (NanoBRET Target Engagement K192 Kinase Selectivity System)
T25 sequence (Q06418 41-890): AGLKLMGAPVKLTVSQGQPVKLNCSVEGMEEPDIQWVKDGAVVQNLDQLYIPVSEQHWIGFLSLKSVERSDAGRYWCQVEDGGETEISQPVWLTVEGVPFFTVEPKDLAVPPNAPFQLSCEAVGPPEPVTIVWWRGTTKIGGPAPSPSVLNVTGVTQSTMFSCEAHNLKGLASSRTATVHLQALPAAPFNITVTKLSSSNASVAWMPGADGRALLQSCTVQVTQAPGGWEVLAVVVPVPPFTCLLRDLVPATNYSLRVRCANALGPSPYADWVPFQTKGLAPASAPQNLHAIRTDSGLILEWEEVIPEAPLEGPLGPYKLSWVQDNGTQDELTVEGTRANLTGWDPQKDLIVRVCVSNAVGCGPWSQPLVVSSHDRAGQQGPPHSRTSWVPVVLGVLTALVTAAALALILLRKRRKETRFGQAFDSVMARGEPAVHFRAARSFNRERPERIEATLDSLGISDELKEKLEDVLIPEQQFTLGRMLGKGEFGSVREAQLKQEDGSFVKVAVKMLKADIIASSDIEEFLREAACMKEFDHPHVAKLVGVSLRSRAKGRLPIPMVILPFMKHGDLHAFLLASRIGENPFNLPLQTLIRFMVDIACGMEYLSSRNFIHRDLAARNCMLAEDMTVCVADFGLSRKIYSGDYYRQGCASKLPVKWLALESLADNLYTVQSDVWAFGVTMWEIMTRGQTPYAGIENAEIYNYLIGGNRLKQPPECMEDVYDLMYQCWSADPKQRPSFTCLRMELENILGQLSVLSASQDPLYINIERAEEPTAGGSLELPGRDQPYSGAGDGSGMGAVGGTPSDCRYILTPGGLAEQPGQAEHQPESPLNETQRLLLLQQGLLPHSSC
In short: as §1

JAK3 = target: T26, JAK3 (Homo sapiens, UniProt P52333)
T26 construct: purchased Promega (NanoBRET Target Engagement K192 Kinase Selectivity System)
In short: as §1

NEK5 = target: T27, NEK5 (Homo sapiens, UniProt Q6P3R8)
T27 construct: purchased Promega (NanoBRET Target Engagement K192 Kinase Selectivity System)
In short: as §1

RPS6KA2 = target: T28, RPS6KA2 (Homo sapiens, UniProt Q15349)
T28 construct: purchased Promega (NanoBRET Target Engagement K192 Kinase Selectivity System)
In short: as §1

T1 sequence (Q00532 whole entry): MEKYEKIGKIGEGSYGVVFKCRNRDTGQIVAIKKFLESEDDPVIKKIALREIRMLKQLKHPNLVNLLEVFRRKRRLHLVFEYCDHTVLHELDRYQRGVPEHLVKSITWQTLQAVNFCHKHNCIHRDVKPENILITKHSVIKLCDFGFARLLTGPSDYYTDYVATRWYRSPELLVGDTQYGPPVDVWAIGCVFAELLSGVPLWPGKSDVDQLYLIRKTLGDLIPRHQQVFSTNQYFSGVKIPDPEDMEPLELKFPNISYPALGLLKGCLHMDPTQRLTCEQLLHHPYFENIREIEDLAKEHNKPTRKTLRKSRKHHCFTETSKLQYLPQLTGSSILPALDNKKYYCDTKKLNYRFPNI

`CCC(=O)Nc1cc(Nc2cc(NC3CC3)n3ncc(C#N)c3n2)c(F)cc1N1CCC[C@H](NC)C1` [Compound 2, (S)-N-(5-((3-cyano-7-(cyclopropylamino)pyrazolo[1,5-a]pyrimidin-5-yl)amino)-4-fluoro-2-(3-(methylamino)piperidin-1-yl)phenyl)propionamide] was tested, and the receptor occupancy at 10 µM (CDKL1) was 1.5%, the receptor occupancy at 10 µM (PRKAA2) was 0.5% and the receptor occupancy at 10 µM (RIPK1) was 9.1%. The receptor occupancy at 10 µM (FGFR1) was 10.4%, the receptor occupancy at 10 µM (PAK4) was 4.5% and the receptor occupancy at 10 µM (PTK2) was 15.7%. For the same compound, the receptor occupancy at 10 µM (ULK3v1) was -7.4%, the receptor occupancy at 10 µM (NIM1K) was -23.7% and the receptor occupancy at 10 µM (MAPK11) was 9.4%. It also gave a receptor occupancy at 10 µM (RPS6KA6) of 10.6%, a receptor occupancy at 10 µM (MAPK4) of 0.9% and a receptor occupancy at 10 µM (MARK4) of 7.4%. For the same compound, the receptor occupancy at 10 µM (FGFR2) was -2.9%, the receptor occupancy at 10 µM (PRKCE) was 6.2% and the receptor occupancy at 10 µM (BMP2K) was 7.6%. It also gave a receptor occupancy at 10 µM (PLK4) of 3.8%, a receptor occupancy at 10 µM (STK32B) of 5.9% and a receptor occupancy at 10 µM (CDK10 + L2) of 13.6%. It also gave a receptor occupancy at 10 µM (PLK3) of 15.5%, a receptor occupancy at 10 µM (LIMK1) of 6.6% and a receptor occupancy at 10 µM (STK16) of 16.4%. For the same compound, the receptor occupancy at 10 µM (BRAF(V600E)) was 5.3%, the receptor occupancy at 10 µM (PTK2B) was -1.6% and the receptor occupancy at 10 µM (AURKB) was 1.4%. The receptor occupancy at 10 µM (TYRO3) was 3.9%, the receptor occupancy at 10 µM (JAK3) was 4.6% and the receptor occupancy at 10 µM (NEK5) was 24.8%. For the same compound, the receptor occupancy at 10 µM (RPS6KA2) was 2.4%.
